Patent US20250130239A1, “PROTEIN DEGRADER” (University of Dundee, priority 2021, published 2025)
pEC50: −log10 of the molar value. Like-named read-outs stand apart in the source and are kept apart here.

Columns and labels:
[1] = test system: BRD2 in Bromotag-BRD2 CRISPR knock-in HEK293 cells; assay: TMT labeling mass spectrometry proteomics, tagged target; assay type: cell-based, human; conditions: 1 μM, 2 h; >6,621 proteins quantified
Experimental: (§1) Sample processing, TMT labelling and fractionation. CRISPR modified BromoTag-Brd2 HEK293 cells were seeded 5×10^6 cells on a […] 24 h before treatment. Cells were treated with either DMSO, 1 μM AGB1 or 1 μM cis-AGB1. 2 h post-treatment, the cells were washed twice with PBS. Cells were lysed in 150 μL of 100 mM TEAB, 5% (w/v) SDS. The lysate was sonicated for 10 s and then centrifuged at 15,000 g for 5 min with the supernatant collected post-centrifugation. Samples were then quantified using a micro-BCA protein assay kit (Thermo Fisher Scientific); 300 μg of each sample were then reduced, alkylated and then digested using Strap mini protocol (Protifi) protocol as described by the manufacturer (protifi) with some modification. Samples were double digested with trypsin (1:40) first overnight then for another 6 hrs with the same ratio (1:40) in 50 mM TEAB buffer. Peptides were quantified using a quantitative fluorometric peptide assay (Thermo Fisher Scientific). The samples (90 μg each) were labelled with a TMT 10-plex Isobaric Label Reagent set (Thermo Fisher Scientific) as per the manufacturer's instructions. After labelling, samples were checked for labelling efficiency, then mixed, desalted, and dried in a speed-vac at 30° C. Samples were re-dissolved in 200 μl ammonium formate (10 mM, pH 9.5) and peptides were fractionated using High pH RP Chromatography. […]

[2] = test system: BRD3, BRD4 or any other endogenous protein; assay: TMT labeling mass spectrometry proteomics, off-targets; assay type: cell-based, human; conditions: 1 μM, 2 h; >6,621 proteins quantified
Experimental: as §1

Brd2, Brd3 and Brd4 = assay: First generation screen at 1 μM, 6 h: BET protein levels (western blot); assay type: cell-based, human
Experimental: Western Blotting. All cells were harvested on ice with RIPA lysis, and extraction buffer (ThermoFisher Scientific, 89901) supplemented with protease inhibitor cocktail (Merck, 11697498001) and Benzonase® Nuclease (Sigma, E1014) before being store at −20° C. prior to use. Total protein quantity was determined using the BCA protein assay (#23225, Pierce, Rockford, Illinois). Protein concentration was determined using the BCA assay (ThermoFisher Scientific, 23225). Samples were then prepared and loaded onto NuPAGE™ 4-12% Bis-Tris Midi gels (ThermoFisher Scientific, WG1403A), followed by the transfer of the proteins onto nitrocellulose membranes (EMD Millipore). […] All western blots were analysed for band intensities using Image Lab from Bio-Rad (LI-COR, Biosciences). The data extracted from these blots were then plotted and analysed using Prism (v. 8.2.0, GraphPad).
With this initial library in hand, we set out to evaluate the activity and selectivity of our I-BET-based B&H-PROTACs by treating our heterozygous BromoTag-Brd2 HEK293 cells with 1 μM of compounds 15-17 or 1 μM of control compounds MZP-15 (14), MZ1 (1) and cis-MZ1 for 6 h, which is sufficient time to achieve effective MZ1-induced BET protein degradation (FIG. 4A). Cells were harvested, and the subsequent lysate was analysed via western blot using antibodies against BET proteins; Brd2, Brd3 and Brd4 (FIG. 4A).

wild-type Brd4^BD2 = wild-type Brd4^BD2 (Homo sapiens, UniProt O60885); conditions: cited from earlier work
MV-4-11 cells = assay: CellTiter-Glo cell viability assay, MV-4-11; assay type: cell-based, human; conditions: 24 h
Experimental: Cell Viability Assay. MV-4-11 cells were plated at a density of 2×10^4 cell per well of a 96 well white-bottom plate, and left to grow overnight in 50 μl of IMDM (Invitrogen, arlsebad, CA, USA) supplemented with 10% (v/v) Fetal bovine serum (FBS) (Thermo Fisher, Waltham, MA, USA) and 1% (v/v) penicillin/streptomycin (pen/strep) (#15140122, Thermo Fisher, Waltham, MA, USA) at 37° C., 5% CO2, and 95% humidity. […] These cells were then left to incubate at 37° C., 5% CO2, and 95% humidity for one day prior to undergoing spectrophotometric analysis. 22RV1 cells were plated at a density of 2×10^4 cell per well of a 96 well white-bottom plate, and left to grow overnight in 100 μL of RPMI-1640 (Invitrogen, Carlsebad, CA, USA) supplemented with 10% (v/v) fetal bovine serum (FBS) (Thermo Fisher, Waltham, MA, USA) and 1% (v/v) penicillin/streptomycin (pen/strep) (#15140122, Thermo Fisher, Waltham, MA, USA) at 37° C., 5% CO2, and 95% humidity. […] Plates were subjected to 2 mins on an orbital shaker to encourage lysis and left for a further 5 mins to reach peak luminescence. Luminescence was then recorded on a BMG Labtech PHERAstar luminescence plate reader with recommended settings. Data extracted from this analysis was analysed with Graphpad Prism (v. 8.2.0, GraphPad) and normalized to the DMSO vehicle control. […]

[3] = mice, values obtained from ref., cited from earlier work

Question: Which “BRD2 protein abundance (proteomics)” value [1] does the source give for “(S)-13-((2S,4R)-4-hydroxy-2-((4-(4-methylthiazol-5-yl)benzyl)carbamoyl)pyrrolidine-1-carbonyl)-14,14-dimethyl-11-oxo-3,6,9-trioxa-12-azapentadecyl (R)-2-((S)-4-(4-chlorophenyl)-2,3,9-trimethyl-6H-thieno[3,2-f][1,2,4]triazolo[4,3-a][1,4]diazepin-6-yl)butanoate [AGB1 (46)]” here?
Answer: most significantly degraded

Question: What about the “depletion of BRD3, BRD4 or any other endogenous protein (proteomics)” value [2] of the same molecule?
Answer: no detectable depletion

Question: Which “activity across all three BET family members relative to 1” value (Brd2, Brd3 and Brd4) does the source give for `COc1ccc2c(c1)C(c1ccc(Cl)cc1)=NC(CC(=O)NCCOCCOCCOCC(=O)N[C@H](C(=O)N1C[C@H](O)C[C@H]1C(=O)NCc1ccc(-c3scnc3C)cc1)C(C)(C)C)c1nnc(C)n1-2` (stereo partly drawn) [MZP-15 (14), (2S,4R)-1-((2S)-2-(tert-butyl)-17-(6-(4-chlorophenyl)-8-methoxy-1-methyl-4H-benzo[fj][1,2,4]triazolo[4,3-a][1,4]diazepin-4-yl)-4,16-dioxo-6,9,12-trioxa-3,15-diazaheptadecanoyl)-4-hydroxy-N-(4-(4-methylthiazol-5-yl)benzyl)pyrrolidine-2-carboxamide] here?
Answer: significant lower activity

Question: Which “binding to the wild-type domain” value (wild-type Brd4^BD2) does the source give for `CC[C@@H](C(=O)OC)[C@@H]1N=C(c2ccc(Cl)cc2)c2c(sc(C)c2C)-n2c(C)nnc21` [ET-JQ1-OMe] here?
Answer: undetectable binding

Question: With `Cc1ncsc1-c1ccc(CNC(=O)[C@@H]2C[C@@H](O)CN2C(=O)[C@@H](NC(=O)COCCOCCOCCNC(=O)C[C@@H]2N=C(c3ccc(Cl)cc3)c3c(sc(C)c3C)-n3c(C)nnc32)C(C)(C)C)cc1` [MZ1 (1)] as the molecule, how does the pEC50 (MV-4-11 cells) read?
Answer: ~7.70

Question: What about the “T1/2” value ([3]; IV (5 mg/kg), 5 mg/kg) of the same molecule?
Answer: 1.04 h

Question: And the “AUCinf” value ([3]; IV (5 mg/kg))?
Answer: 4.51 µM·h

Question: What about the “CL” value ([3]; IV (5 mg/kg)) of the same molecule?
Answer: 19.7 mL/min/kg

Question: And the “MRTinf” value ([3]; IV (5 mg/kg))?
Answer: 0.340 h

Question: And the “Vss” value ([3]; IV (5 mg/kg))?
Answer: 0.38 L/kg

Question: What about the “T1/2” value ([3]; IV (5 mg/kg), listed as 1, 5 mg/kg) of the same molecule?
Answer: 1.05 h

Question: What about the “AUCinf” value ([3]; SC (5 mg/kg)) of the same molecule?
Answer: 3.76 µM·h

Question: What about the “F (%)” value ([3]; SC (5 mg/kg)) of the same molecule?
Answer: 83%

Question: And the “T1/2” value ([3]; SC (5 mg/kg))?
Answer: 2.95 h

Question: Which “BRD2 protein abundance (proteomics)” value [1] does the source give for `CC[C@@H](C(=O)OCCOCCOCCOCC(=O)N[C@H](C(=O)N1C[C@@H](O)C[C@H]1C(=O)NCc1ccc(-c2scnc2C)cc1)C(C)(C)C)[C@@H]1N=C(c2ccc(Cl)cc2)c2c(sc(C)c2C)-n2c(C)nnc21` [cis-AGB1, (S)-13-((2S,4S)-4-hydroxy-2-((4-(4-methylthiazol-5-yl)benzyl)carbamoyl)pyrrolidine-1-carbonyl)-14,14-dimethyl-11-oxo-3,6,9-trioxa-12-azapentadecyl (R)-2-((S)-4-(4-chlorophenyl)-2,3,9-trimethyl-6H-thieno[3,2-f][1,2,4]triazolo[4,3-a][1,4]diazepin-6-yl)butanoate] here?
Answer: No significant changes
